From patent publication US7883687B2, “15O-labeled monosaccharide and producing method thereof” (Astellas Pharma Inc., priority 2004, dated 2011)

Test: PET imaging in rat (Planar Positron Imaging System)
Settings: injected from tail vein, integrated PET image from 15 min to 30 min after administration (FIG. 4A, 4B)
Experimental: Hydroxylation of 2,6-dideoxy-6-iodo-D-glucose and 6-iodo-6-deoxy-D-glucose was performed in the glass filter reactor as shown in FIG. 1. Sep-Pak cartridges were purchased from Waters. The cyclotron is OSCAR-12 (NKK/Oxford). The target gas consisted of 1.5% O2 in ^15N2. PET scans were obtained on Planar Positron Imaging System (Hamamatsu Photonics K.K.).
A solution of 2,6-dideoxy-6-iodo-D-glucose (274 mg, 1.0 mmol), tributyltin hydride (807 μl, 3.0 mmol) and AIBN (4.0 mg, 0.025 mmol) in PhCF3 (20.0 ml)/C10F18 (4.5 ml)/2-BuOH (3.0 ml) was placed in the reactor, which was on the automated synthetic apparatus (FIG. 3). Proton bombardment (beam current 50 μA) on target gas started (N2/O2=98.5/1.5, target gas pressure=6 kg/cm^2). The beginning of the bombardment was defined as 0 sec for convenience. Cold gas (N2/O2=[…], 180 ml/min) was provided and heating with temperature-controlled air (80° C.) started simultaneously at 2 min 40 sec. At 4.0 min, the target gas was evacuated from the targeting area in the cyclotron system (20 ml/min). The target gas was mixed with cold N2/O2 gas (target gas/N2/O2=20/177/3, 200 ml/min), and the resulting gas was then supplied to the reaction vessel. […] At 5 min 20 sec, the bombardment stopped. However, evacuation of the target gas continued. Triphenylphosphine (262 mg, 1.0 mmol in 1.5 ml of PhCF3) was added at 6.0 min. […]

O=CCC(O)C(O)C(O)C[15OH] [[^15O]2-DG, ^15[O]2-deoxy-D-glucose]
accumulation of tracer in integrated PET image: accumulation of [^15O]2-DG in heart, kidney and bladder
